Measurements published in the NIST ThermoML archive (doi:10.1016/j.jct.2011.06.016).
± gives the expanded uncertainty stated by the source.

Assay: refractive index (Na D-line) (dimensionless)
Conditions: 101.33 kPa, Liquid, Standard Abbe refractometry

refractive index (298.15 K)	refractive index (313.15 K)	SMILES
1.333 ± 0.001	–	O [water]
1.471 ± 0.001	–	OCC(O)CO [glycerol]
–	1.436 ± 0.001	CCCCCCCCCCCCCCCCCC(=O)OCC [ethyl octadecanoate]
1.437 ± 0.001	–	CCCCCCCCCCCCCCCC(=O)OCC [ethyl hexadecanoate]

SMILES	refractive index (298.15 K)	refractive index (313.15 K)
CCO [ethanol]	1.3625 ± 0.0007	–
